Data as given in patent US8119168B2, “Personal care compositions comprising a zinc containing material in an aqueous surfactant composition” (The Procter & Gamble Company, priority 2002, dated 2012).

test: Zincon metallochromic dye test for available Zn^2+ (visual color change orange to blue); assay type: physicochemical; settings: ZCM ~30 mg/10 ml water, pH 7-11, binary visual assessment
Description: Zinc-containing materials (ZCMs) differ with respect to how strongly the zinc ion (Zn^2+) is held by counterions in the crystal lattice. The benefits discussed herein depend upon having available Zn^2+. […] The response is a binary visual assessment of whether or not the color changes indicating zinc-binding.
The method is based on the commercial metallochromic dye zincon. Zincon changes from an orange color to blue upon binding zinc and provides the basis for detecting available Zn^2+:
The specific procedure involves making a stock solution of zincon in ethanol (˜50 mg/10 ml ethanol). The ZCM is then added to water (˜30 mg/10 ml water) and agitated (pH range should be 7-11). Three to four drops of zincon solution are then added to the ZCM in water, agitated and a visual assessment of color change made.

Row | Compound | available Zn^2+ (zincon color change)
1 | O=C([O-])CC(O)(CC(=O)[O-])C(=O)[O-].O=C([O-])CC(O)(CC(=O)[O-])C(=O)[O-].[Zn+2].[Zn+2].[Zn+2] [zinc citrate] | have available zinc
2 | [OH-].[OH-].[Zn+2] [zinc hydroxide] | have available zinc
3 | CC(=O)[O-].CC(=O)[O-].[Zn+2] [zinc acetate] | have available zinc
4 | [Cl-].[Cl-].[Zn+2] [zinc chloride] | have available zinc
5 | zinc stearate | have available zinc
6 | O=S(=O)([O-])[O-].[Zn+2] [zinc sulfate] | have available zinc
7 | zinc hexaborate | have available zinc
8 | N=C(N)NCCC[C@H](N)C(=O)O.[Zn] [zinc arginine] | have available zinc
9 | zinc histadine | have available zinc
10 | [O]=[Zn] [Zinc Oxide] | have available zinc
11 | CC(O)C(=O)[O-].CC(O)C(=O)[O-].[Zn+2] (stereo not drawn) [zinc lactate] | have available zinc
12 | O=C([O-])CN(CCN(CC(=O)[O-])CC(=O)[O-])CC(=O)[O-].[Na+].[Na+].[Zn+2] [zinc EDTA] | not having available Zn^2+
13 | OCC(O)CO.[Zn] [zinc monoglycerolate] | have available zinc
14 | O=C([O-])C(=O)[O-].[Zn+2] [zinc oxalate] | have available zinc
15 | zinc phytate | not having available Zn^2+

test: Relative zinc lability by xylenol orange (XO) color change, absorbance at 572 nm; assay type: physicochemical; settings: 6% sodium lauryl sulfate
Experimental: Zinc lability is a measure of the chemical availability of zinc ion. […] The use of partially soluble forms of zinc salts and/or incorporation in a matrix with potential complexants generally lowers the zinc lability substantially below the defined 100% maximum.
Zinc lability is assessed by combining a diluted zinc-containing solution or dispersion with the metallochromic dye xylenol orange (XO) and measurement of the degree of color change under specified conditions. The magnitude of color formation is proportional to the level of labile zinc. The procedure developed has been optimized for aqueous surfactant formulations but may be adapted to other physical product forms as well.
A spectrophotometer is used to quantify the color change at 572 nm, the wavelength of optimum color change for XO. The spectrophotometer is set to zero absorbance at 572 nm utilizing a product control as close in composition to the test product except excluding the potentially labile form of zinc. The control and test products are then treated identically as follows. A 50 μl product sample is dispensed into a jar and 95 ml of deaerated, distilled water are added and stirred. 5 mL of a 23 mg/mL xylenol orange stock solution at pH 5.0 is pipetted into the sample jar; this is considered time 0. The pH is then adjusted to 5.50±0.01 using dilute HCl or NaOH. After 10.0 minutes, a portion of the sample is filtered (0.45μ) and the absorbance measured at 572 nm. The measured absorbance is then compared to a separately measured control to determine the relative zinc lability (zero TO 100%). The 100% lability control is prepared in a matrix similar to the test products but utilizing a soluble zinc material (such as zinc sulfate) incorporated at an equivalent level on a zinc basis. The absorbance of the 100% lability control is measured as above for the test materials.

Row | Compound | Relative Zinc Lability (%) Simple Surfactant System Alone [%]
16 | [O]=[Zn] [Zinc Oxide] | 1.5
17 | O=C([O-])[O-].O=C([O-])[O-].[OH-].[OH-].[OH-].[OH-].[OH-].[OH-].[Zn+2].[Zn+2].[Zn+2].[Zn+2].[Zn+2] [Hydrozincite] | 37.0

same assay, conditions: 6% sodium lauryl sulfate plus sodium bicarbonate at 0.2% level

Row | Compound | Relative Zinc Lability (%) Simple Surfactant System Plus Sodium Bicarbonate [%]
18 | [O]=[Zn] [Zinc Oxide] | 33.2
